Laboratory results as given in the kinase profiling compilation of Christmann-Franck et al. (2016).

What was measured:
Experiment in all cases: KINOMEscan competition binding
Conditions in all cases: compound 10.0 µM
[1] = molecular target: ACVR1B (human) (UniProt P36896)
[2] = molecular target: ADCK4 (human) (UniProt Q96D53)
[3] = molecular target: AURKA (human) (UniProt O14965)
[4] = molecular target: CDK16 (human) (UniProt Q00536)
[5] = molecular target: CDK7 (human) (UniProt P50613)
[6] = molecular target: CLK1 (human) (UniProt P49759)
[7] = molecular target: CLK3 (human) (UniProt P49761)
Sequence of CLK3 (human) (P49761 whole entry, looked up): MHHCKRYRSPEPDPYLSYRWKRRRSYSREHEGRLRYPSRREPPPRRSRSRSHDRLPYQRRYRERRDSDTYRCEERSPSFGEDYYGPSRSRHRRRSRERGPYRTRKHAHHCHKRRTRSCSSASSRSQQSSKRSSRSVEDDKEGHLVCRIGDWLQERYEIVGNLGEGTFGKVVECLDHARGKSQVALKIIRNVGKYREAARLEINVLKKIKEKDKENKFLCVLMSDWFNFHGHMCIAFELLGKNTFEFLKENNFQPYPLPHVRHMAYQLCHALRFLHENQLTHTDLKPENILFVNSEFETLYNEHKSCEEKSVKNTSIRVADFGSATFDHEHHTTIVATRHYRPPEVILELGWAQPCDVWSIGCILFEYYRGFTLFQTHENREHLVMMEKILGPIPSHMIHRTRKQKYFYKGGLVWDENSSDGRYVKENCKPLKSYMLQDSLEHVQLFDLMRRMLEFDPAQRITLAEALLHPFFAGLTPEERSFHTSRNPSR

[8] = molecular target: CSNK1E (human) (UniProt P49674)
[9] = molecular target: DCLK1 (human) (UniProt O15075)
[10] = molecular target: DDR2 (human) (UniProt Q16832)
[11] = molecular target: EPHA2 (human) (UniProt P29317)
[12] = molecular target: EPHA3 (human) (UniProt P29320)
[13] = molecular target: EPHB1 (human) (UniProt P54762)
[14] = molecular target: ERBB2 (human) (UniProt P04626)
[15] = molecular target: FER (human) (UniProt P16591)
[16] = molecular target: FGFR2 (human) (UniProt P21802)
Sequence of FGFR2 (human) (P21802 whole entry, looked up): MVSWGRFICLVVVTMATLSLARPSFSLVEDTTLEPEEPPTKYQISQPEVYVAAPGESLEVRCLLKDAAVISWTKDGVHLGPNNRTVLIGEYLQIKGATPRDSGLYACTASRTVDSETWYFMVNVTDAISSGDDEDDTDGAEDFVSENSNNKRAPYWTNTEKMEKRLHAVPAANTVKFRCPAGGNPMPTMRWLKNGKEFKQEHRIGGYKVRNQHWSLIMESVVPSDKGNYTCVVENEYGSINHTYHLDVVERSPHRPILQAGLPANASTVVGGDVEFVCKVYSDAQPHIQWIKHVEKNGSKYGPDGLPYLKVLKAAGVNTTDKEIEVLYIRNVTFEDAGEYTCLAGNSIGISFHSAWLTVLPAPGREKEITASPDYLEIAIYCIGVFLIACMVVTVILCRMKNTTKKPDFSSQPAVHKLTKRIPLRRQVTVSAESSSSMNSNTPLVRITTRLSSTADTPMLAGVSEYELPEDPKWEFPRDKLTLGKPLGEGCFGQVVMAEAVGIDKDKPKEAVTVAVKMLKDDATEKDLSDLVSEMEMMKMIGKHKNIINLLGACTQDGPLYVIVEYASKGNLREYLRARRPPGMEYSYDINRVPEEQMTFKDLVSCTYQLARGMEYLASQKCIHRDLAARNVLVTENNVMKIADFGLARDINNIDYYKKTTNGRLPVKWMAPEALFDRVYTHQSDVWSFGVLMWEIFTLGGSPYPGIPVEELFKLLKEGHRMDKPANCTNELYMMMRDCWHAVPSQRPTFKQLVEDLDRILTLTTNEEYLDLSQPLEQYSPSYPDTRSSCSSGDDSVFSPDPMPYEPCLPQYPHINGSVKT

[17] = molecular target: FLT4 (human) (UniProt P35916)
[18] = system: KIT (human), P10721 [V559D]
[19] = molecular target: MAP4K2 (human) (UniProt Q12851)
[20] = molecular target: MAPK7 (human) (UniProt Q13164)
Sequence of MAPK7 (human) (Q13164 whole entry, looked up): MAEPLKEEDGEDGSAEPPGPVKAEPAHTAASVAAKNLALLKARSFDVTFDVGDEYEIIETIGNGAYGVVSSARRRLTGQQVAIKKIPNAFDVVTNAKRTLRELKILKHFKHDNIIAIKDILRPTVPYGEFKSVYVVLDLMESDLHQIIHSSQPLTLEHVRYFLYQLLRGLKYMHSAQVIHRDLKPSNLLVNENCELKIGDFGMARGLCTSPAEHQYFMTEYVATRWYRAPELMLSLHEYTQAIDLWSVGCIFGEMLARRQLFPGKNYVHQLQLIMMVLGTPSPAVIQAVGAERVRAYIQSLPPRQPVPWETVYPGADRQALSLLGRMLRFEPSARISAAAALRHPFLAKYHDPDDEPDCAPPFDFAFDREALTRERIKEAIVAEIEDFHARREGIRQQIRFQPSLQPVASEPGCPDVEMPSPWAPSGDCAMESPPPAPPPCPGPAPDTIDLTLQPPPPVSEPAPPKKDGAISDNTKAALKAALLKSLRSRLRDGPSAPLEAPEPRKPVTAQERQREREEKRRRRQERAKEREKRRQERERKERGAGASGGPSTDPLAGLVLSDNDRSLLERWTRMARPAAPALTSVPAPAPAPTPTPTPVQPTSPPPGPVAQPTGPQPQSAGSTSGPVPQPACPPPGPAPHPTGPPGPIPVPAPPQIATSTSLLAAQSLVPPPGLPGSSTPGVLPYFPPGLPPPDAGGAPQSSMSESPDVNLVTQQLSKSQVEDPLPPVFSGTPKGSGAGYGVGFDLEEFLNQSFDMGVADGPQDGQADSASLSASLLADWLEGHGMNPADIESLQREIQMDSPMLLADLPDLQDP

[21] = molecular target: MAPK8 (human) (UniProt P45983)
Sequence of MAPK8 (human) (P45983 whole entry, looked up): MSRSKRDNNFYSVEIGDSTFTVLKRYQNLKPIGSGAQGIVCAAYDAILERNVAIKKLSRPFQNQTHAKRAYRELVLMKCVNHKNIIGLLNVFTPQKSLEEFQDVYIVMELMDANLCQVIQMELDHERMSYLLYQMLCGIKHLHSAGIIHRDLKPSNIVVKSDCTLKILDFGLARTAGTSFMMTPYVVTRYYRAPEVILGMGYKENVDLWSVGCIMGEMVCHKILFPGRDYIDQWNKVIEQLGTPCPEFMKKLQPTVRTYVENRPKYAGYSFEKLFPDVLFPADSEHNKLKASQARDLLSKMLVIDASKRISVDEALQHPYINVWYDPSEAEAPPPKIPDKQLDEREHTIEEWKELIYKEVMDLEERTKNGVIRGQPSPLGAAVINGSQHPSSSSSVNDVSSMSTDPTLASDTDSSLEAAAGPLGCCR

[22] = molecular target: MKNK2 (human) (UniProt Q9HBH9)
Sequence of MKNK2 (human) (Q9HBH9 whole entry, looked up): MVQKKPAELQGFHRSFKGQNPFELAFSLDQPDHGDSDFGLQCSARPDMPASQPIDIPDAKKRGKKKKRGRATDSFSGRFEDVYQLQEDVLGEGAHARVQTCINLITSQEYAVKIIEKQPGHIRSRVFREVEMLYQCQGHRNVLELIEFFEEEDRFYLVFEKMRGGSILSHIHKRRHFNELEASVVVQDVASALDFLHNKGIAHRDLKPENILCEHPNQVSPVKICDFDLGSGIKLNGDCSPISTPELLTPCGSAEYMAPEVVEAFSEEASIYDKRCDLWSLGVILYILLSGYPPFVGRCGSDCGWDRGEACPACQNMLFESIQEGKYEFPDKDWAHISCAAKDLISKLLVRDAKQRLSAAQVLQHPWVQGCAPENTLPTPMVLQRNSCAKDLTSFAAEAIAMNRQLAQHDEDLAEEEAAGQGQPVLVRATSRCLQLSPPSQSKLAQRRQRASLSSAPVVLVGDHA

[23] = molecular target: MST1R (human) (UniProt Q04912)
[24] = molecular target: MUSK (human) (UniProt O15146)
[25] = molecular target: PDPK1 (human) (UniProt O15530)
[26] = molecular target: PLK3 (human) (UniProt Q9H4B4)
[27] = molecular target: PRKAA2 (human) (UniProt P54646)
[28] = molecular target: PRKACB (human) (UniProt P22694)
[29] = molecular target: PRKD3 (human) (UniProt O94806)
[30] = molecular target: RPS6KA1 KD2 (human) (UniProt Q15418)
[31] = molecular target: RPS6KA2 KD2 (human) (UniProt Q15349)
[32] = molecular target: SGK110 (human) (UniProt P0C264)
[33] = molecular target: SIK2 (human) (UniProt Q9H0K1)
[34] = molecular target: STK16 (human) (UniProt O75716)
Sequence of STK16 (human) (O75716 whole entry, looked up): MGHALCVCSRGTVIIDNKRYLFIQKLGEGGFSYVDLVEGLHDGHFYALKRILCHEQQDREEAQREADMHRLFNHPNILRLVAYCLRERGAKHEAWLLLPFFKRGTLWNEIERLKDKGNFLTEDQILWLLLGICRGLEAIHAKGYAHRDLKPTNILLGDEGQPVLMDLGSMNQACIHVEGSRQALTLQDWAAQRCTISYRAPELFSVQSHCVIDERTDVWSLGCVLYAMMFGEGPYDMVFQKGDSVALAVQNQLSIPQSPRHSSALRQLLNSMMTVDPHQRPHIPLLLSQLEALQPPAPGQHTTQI

[35] = molecular target: STK17A (human) (UniProt Q9UEE5)
[36] = molecular target: TESK1 (human) (UniProt Q15569)
Sequence of TESK1 (human) (Q15569 whole entry, looked up): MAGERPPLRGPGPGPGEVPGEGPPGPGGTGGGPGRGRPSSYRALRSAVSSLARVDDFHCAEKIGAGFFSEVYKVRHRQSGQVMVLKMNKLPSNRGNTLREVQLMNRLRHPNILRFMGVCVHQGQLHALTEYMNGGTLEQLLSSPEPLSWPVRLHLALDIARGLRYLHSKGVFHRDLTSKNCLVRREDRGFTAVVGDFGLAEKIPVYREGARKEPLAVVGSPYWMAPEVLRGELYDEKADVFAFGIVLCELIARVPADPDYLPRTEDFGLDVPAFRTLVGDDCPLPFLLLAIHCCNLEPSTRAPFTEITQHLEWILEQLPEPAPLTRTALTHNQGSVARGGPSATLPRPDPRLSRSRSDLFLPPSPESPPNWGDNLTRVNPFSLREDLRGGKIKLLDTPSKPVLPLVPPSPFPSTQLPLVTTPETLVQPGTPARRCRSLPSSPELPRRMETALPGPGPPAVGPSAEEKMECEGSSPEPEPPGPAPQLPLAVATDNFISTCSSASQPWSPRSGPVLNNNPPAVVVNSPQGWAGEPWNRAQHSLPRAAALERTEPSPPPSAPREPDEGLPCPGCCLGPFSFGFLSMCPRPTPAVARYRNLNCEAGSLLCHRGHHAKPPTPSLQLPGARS

[37] = molecular target: TNNI3K (human) (UniProt Q59H18)
[38] = molecular target: ULK1 (human) (UniProt O75385)
[39] = molecular target: ULK2 (human) (UniProt Q8IYT8)
[40] = molecular target: WEE2 (human) (UniProt P0C1S8)
Sequence of WEE2 (human) (P0C1S8 whole entry, looked up): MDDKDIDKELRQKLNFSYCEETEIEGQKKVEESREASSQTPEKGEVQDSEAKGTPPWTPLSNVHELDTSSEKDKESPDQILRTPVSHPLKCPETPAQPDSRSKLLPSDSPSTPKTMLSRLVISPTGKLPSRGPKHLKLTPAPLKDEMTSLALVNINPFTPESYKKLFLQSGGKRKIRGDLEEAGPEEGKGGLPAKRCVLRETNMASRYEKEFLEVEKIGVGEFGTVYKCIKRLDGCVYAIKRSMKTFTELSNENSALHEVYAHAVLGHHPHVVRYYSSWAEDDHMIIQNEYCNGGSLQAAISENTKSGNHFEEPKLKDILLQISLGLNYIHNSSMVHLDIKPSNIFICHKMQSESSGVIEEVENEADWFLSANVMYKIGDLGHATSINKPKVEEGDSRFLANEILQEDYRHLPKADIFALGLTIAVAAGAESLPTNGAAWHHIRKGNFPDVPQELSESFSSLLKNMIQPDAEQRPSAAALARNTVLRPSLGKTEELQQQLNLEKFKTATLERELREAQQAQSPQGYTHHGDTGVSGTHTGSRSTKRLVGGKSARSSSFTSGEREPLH

Sequence of CDK16 (human) (Q00536 whole entry, looked up): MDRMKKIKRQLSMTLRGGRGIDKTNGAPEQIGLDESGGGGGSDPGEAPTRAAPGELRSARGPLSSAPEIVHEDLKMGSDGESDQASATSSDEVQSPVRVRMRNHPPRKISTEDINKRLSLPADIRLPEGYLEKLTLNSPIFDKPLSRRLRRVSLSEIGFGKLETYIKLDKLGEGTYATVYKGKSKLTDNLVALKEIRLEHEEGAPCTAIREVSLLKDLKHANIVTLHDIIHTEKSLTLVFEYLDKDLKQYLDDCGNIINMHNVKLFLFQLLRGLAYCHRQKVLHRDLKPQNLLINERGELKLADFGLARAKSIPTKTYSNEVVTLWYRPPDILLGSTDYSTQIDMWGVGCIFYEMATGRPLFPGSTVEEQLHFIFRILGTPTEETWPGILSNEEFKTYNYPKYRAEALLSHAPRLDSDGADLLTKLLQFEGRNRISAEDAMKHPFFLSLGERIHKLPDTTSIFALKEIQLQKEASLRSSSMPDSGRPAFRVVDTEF

Compound	kinase still bound, per cent of control [1] [%]	kinase still bound, per cent of control [2] [%]	kinase still bound, per cent of control [3] [%]	kinase still bound, per cent of control [4] [%]	kinase still bound, per cent of control [5] [%]	kinase still bound, per cent of control [6] [%]	kinase still bound, per cent of control [7] [%]	kinase still bound, per cent of control [8] [%]	kinase still bound, per cent of control [9] [%]	kinase still bound, per cent of control [10] [%]	kinase still bound, per cent of control [11] [%]	kinase still bound, per cent of control [12] [%]	kinase still bound, per cent of control [13] [%]	kinase still bound, per cent of control [14] [%]	kinase still bound, per cent of control [15] [%]	kinase still bound, per cent of control [16] [%]	kinase still bound, per cent of control [17] [%]	kinase still bound, per cent of control [18] [%]	kinase still bound, per cent of control [19] [%]	kinase still bound, per cent of control [20] [%]	also measured
Cn1c(=O)n(-c2ccc(C(C)(C)C#N)cc2)c2c3cc(-c4cnc5ccccc5c4)ccc3ncc21	100	100	100	100	100	23	100	100	100	100	100	100	100	100	100	100	100	100	11	100	kinase still bound, per cent of control [21]: 100%; kinase still bound, per cent of control [22]: 100%; kinase still bound, per cent of control [23]: 100%; kinase still bound, per cent of control [24]: 100%; kinase still bound, per cent of control [25]: 100%; kinase still bound, per cent of control [26]: 100%; kinase still bound, per cent of control [27]: 100%; kinase still bound, per cent of control [28]: 100%; kinase still bound, per cent of control [29]: 100%; kinase still bound, per cent of control [30]: 100%; kinase still bound, per cent of control [31]: 100%; kinase still bound, per cent of control [32]: 100%; kinase still bound, per cent of control [33]: 100%; kinase still bound, per cent of control [34]: 100%; kinase still bound, per cent of control [35]: 100%; kinase still bound, per cent of control [36]: 100%; kinase still bound, per cent of control [37]: 100%; kinase still bound, per cent of control [38]: 100%; kinase still bound, per cent of control [39]: 100%; kinase still bound, per cent of control [40]: 100%
C=CC(=O)Nc1cccc(Nc2nc(N[C@H]3CC[C@H](N(C)C)CC3)nc3c2ncn3C(C)C)c1	87	94	100	100	15	1	9	0.1	30	100	60	54	84	100	74	62	58	42	31	100	kinase still bound, per cent of control [21]: 100%; kinase still bound, per cent of control [22]: 39%; kinase still bound, per cent of control [23]: 100%; kinase still bound, per cent of control [24]: 84%; kinase still bound, per cent of control [25]: 100%; kinase still bound, per cent of control [26]: 100%; kinase still bound, per cent of control [27]: 100%; kinase still bound, per cent of control [28]: 100%; kinase still bound, per cent of control [29]: 80%; kinase still bound, per cent of control [30]: 67%; kinase still bound, per cent of control [31]: 81%; kinase still bound, per cent of control [32]: 88%; kinase still bound, per cent of control [33]: 69%; kinase still bound, per cent of control [34]: 72%; kinase still bound, per cent of control [35]: 100%; kinase still bound, per cent of control [36]: 93%; kinase still bound, per cent of control [37]: 62%; kinase still bound, per cent of control [38]: 0.7%; kinase still bound, per cent of control [39]: 2%; kinase still bound, per cent of control [40]: 100%
